What was measured:
[1] = tested on: isolated perfused rat heart; experiment: Recovery of left ventricular developed pressure in isolated perfused rat heart after 10 min total ischemia; design: % of Control Developed Pressure, 15' RP / % of Control Developed Pressure, 30' RP / % of Control Developed Pressure, 60' RP: concentration or dose not given beside the values; details: for % of Control Developed Pressure, 15' RP: 15' reperfusion; for % of Control Developed Pressure, 15' RP / % of Control Developed Pressure, 30' RP / % of Control Developed Pressure, 60' RP: 37° C., N ≥ 5; for % of Control Developed Pressure, 30' RP: 30' reperfusion; for % of Control Developed Pressure, 60' RP: 60' reperfusion; for contractile function of the isolated perfused rat heart: in words, after 10 minutes of total ischemia
Protocol: This hypothesis was also tested using the aforementioned isolated rat heart model. The effects of adenosine and hypoxanthine on the recovery of cardiac contractile function was assessed by the determination of left ventricular developed pressure during the post-ischemic reperfusion phase with the use of an intra-ventricular saline filled balloon.

[2] = tested on: myocardial ATP (isolated perfused rat heart); experiment: Myocardial ATP in Langendorff isolated perfused rat heart before, during and after 10 min ischemia; details: 100 μM; for ATP, 10' Ischemia / ATP, 15' RP / ATP, 30' RP / ATP, 60' RP / ATP, Equilibration: 37° C., N ≥ 5; for ATP, 15' RP: 15' reperfusion; for ATP, 30' RP: 30' reperfusion; for ATP, 60' RP: 60' reperfusion; for ATP, Equilibration: pre-ischemic equilibration; for nucleotide pools (ATP) during ischemia and/or post-ischemic reperfusion: in words, isolated rat heart

Structure (SMILES)	% of Control Developed Pressure, 15' RP [1] [%]	% of Control Developed Pressure, 30' RP [1] [%]	% of Control Developed Pressure, 60' RP [1] [%]	contractile function of the isolated perfused rat heart [1]	ATP, 10' Ischemia [2]	ATP, 15' RP [2]	ATP, 30' RP [2]	ATP, 60' RP [2]	ATP, Equilibration [2]	nucleotide pools (ATP) during ischemia and/or post-ischemic reperfusion [2]
Nc1ncnc2c1ncn2[C@@H]1O[C@H](CO)[C@@H](O)[C@H]1O [Adenosine, adenosine]	86 ± 3	96 ± 3	95 ± 3	capable of restoring the contractile function	1.7 ± 0.1 μmoles/g wet weight	2.9 ± .08 μmoles/g wet weight	2.7 ± .08 μmoles/g wet weight	2.7 ± .06 μmoles/g wet weight	3.9 ± 0.4 μmoles/g wet weight	able to enhance nucleotide pools (ATP) during ischemia and/or during the post-ischemic reperfusion period
O=c1[nH]cnc2nc[nH]c12 [Hypoxanthine, hypoxanthine]	84 ± 5	88 ± 2	87 ± 3	capable of restoring the contractile function	1.4 ± .2 μmoles/g wet weight	2.7 ± .2 μmoles/g wet weight	2.7 ± .1 μmoles/g wet weight	2.3 ± .1 μmoles/g wet weight	3.4 ± .2 μmoles/g wet weight	able to enhance nucleotide pools (ATP) during ischemia and/or during the post-ischemic reperfusion period

Source: patent publication US4880783A, “Use of adenosine, hypoxanthine and ribose-containing solution for improved protection of the heart during surgery” (University of Virginia Alumnia Patents Foundation, priority 1988, dated 1989)
